# Experimental data from ChEMBL document CHEMBL5442219.
# Key:
# Conditions in all cases: Compound concentration 10 µM
# [1] = biological target: T1, Muscarinic acetylcholine receptor M5 (Homo sapiens) (UniProt P08912)
# T1 sequence (whole entry): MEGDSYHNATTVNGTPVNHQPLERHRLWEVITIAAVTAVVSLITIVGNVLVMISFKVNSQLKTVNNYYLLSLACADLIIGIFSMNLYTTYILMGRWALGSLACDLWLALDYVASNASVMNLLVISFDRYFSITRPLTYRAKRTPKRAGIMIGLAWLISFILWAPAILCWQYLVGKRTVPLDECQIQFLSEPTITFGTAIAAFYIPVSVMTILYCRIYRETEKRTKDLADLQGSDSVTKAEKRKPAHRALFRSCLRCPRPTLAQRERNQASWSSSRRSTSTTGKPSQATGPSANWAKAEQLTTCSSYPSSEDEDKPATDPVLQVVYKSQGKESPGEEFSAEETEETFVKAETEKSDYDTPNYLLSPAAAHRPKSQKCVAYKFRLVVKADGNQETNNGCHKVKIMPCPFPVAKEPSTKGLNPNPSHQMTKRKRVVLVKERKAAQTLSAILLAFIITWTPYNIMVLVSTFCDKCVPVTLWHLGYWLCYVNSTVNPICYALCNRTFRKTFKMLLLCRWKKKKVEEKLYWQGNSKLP
# Description: PDSP Primary Binding target: CHRM5 - Compounds are tested at 10 uM concentration, plate are incubated at room temperature in the dark for 90 minutes. Reaction are stopped by vacuum filtration onto 0.3% polyethyleneimine soaked filter mats using Filtermate harvester. Scintilation cocktail is then melted onto microwave-dried filters on a hot plate and the radio activity is counted in Microbia counter.
# [2] = biological target: 5-hydroxytryptamine receptor 1B (Homo sapiens) (UniProt P28222)
# Description: PDSP Primary Binding target: HTR1B - Compounds are tested at 10 uM concentration, plate are incubated at room temperature in the dark for 90 minutes. Reaction are stopped by vacuum filtration onto 0.3% polyethyleneimine soaked filter mats using Filtermate harvester. Scintilation cocktail is then melted onto microwave-dried filters on a hot plate and the radio activity is counted in Microbia counter.
# [3] = biological target: 5-hydroxytryptamine receptor 1E (Homo sapiens) (UniProt P28566)
# Description: PDSP Primary Binding target: HTR1E - Compounds are tested at 10 uM concentration, plate are incubated at room temperature in the dark for 90 minutes. Reaction are stopped by vacuum filtration onto 0.3% polyethyleneimine soaked filter mats using Filtermate harvester. Scintilation cocktail is then melted onto microwave-dried filters on a hot plate and the radio activity is counted in Microbia counter.
# [4] = biological target: Sodium-dependent serotonin transporter (Homo sapiens) (UniProt P31645)
# Description: PDSP Primary Binding target: SLC6A4 - Compounds are tested at 10 uM concentration, plate are incubated at room temperature in the dark for 90 minutes. Reaction are stopped by vacuum filtration onto 0.3% polyethyleneimine soaked filter mats using Filtermate harvester. Scintilation cocktail is then melted onto microwave-dried filters on a hot plate and the radio activity is counted in Microbia counter.
# [5] = biological target: Translocator protein (Homo sapiens) (UniProt P30536)
# Description: PDSP Primary Binding target: TSPO - Compounds are tested at 10 uM concentration, plate are incubated at room temperature in the dark for 90 minutes. Reaction are stopped by vacuum filtration onto 0.3% polyethyleneimine soaked filter mats using Filtermate harvester. Scintilation cocktail is then melted onto microwave-dried filters on a hot plate and the radio activity is counted in Microbia counter.
# [6] = biological target: D(2) dopamine receptor (Homo sapiens) (UniProt P14416)
# Description: PDSP Primary Binding target: DRD2 - Compounds are tested at 10 uM concentration, plate are incubated at room temperature in the dark for 90 minutes. Reaction are stopped by vacuum filtration onto 0.3% polyethyleneimine soaked filter mats using Filtermate harvester. Scintilation cocktail is then melted onto microwave-dried filters on a hot plate and the radio activity is counted in Microbia counter.
# [7] = biological target: Histamine H3 receptor (Homo sapiens) (UniProt Q9Y5N1)
# Description: PDSP Primary Binding target: HRH3 - Compounds are tested at 10 uM concentration, plate are incubated at room temperature in the dark for 90 minutes. Reaction are stopped by vacuum filtration onto 0.3% polyethyleneimine soaked filter mats using Filtermate harvester. Scintilation cocktail is then melted onto microwave-dried filters on a hot plate and the radio activity is counted in Microbia counter.
# [8] = biological target: Histamine H1 receptor (Homo sapiens) (UniProt P35367)
# Description: PDSP Primary Binding target: HRH1 - Compounds are tested at 10 uM concentration, plate are incubated at room temperature in the dark for 90 minutes. Reaction are stopped by vacuum filtration onto 0.3% polyethyleneimine soaked filter mats using Filtermate harvester. Scintilation cocktail is then melted onto microwave-dried filters on a hot plate and the radio activity is counted in Microbia counter.
# [9] = biological target: T2, Alpha-1D adrenergic receptor (Homo sapiens) (UniProt P25100)
# T2 sequence (whole entry): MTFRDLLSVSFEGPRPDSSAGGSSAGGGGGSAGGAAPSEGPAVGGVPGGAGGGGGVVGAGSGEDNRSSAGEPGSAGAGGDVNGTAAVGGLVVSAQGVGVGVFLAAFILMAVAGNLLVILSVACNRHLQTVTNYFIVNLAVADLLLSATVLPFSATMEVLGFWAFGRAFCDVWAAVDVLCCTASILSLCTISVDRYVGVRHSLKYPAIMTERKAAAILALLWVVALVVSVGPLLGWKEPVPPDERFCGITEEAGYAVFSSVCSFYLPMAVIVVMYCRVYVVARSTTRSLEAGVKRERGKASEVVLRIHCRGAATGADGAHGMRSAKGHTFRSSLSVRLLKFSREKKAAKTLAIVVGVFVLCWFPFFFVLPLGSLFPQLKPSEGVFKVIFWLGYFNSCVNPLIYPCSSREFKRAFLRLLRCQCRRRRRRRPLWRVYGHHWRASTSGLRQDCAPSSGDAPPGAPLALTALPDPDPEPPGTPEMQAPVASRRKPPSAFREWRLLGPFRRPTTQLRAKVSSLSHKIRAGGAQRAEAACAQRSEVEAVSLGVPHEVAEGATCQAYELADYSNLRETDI
# Description: PDSP Primary Binding target: ADRA1D - Compounds are tested at 10 uM concentration, plate are incubated at room temperature in the dark for 90 minutes. Reaction are stopped by vacuum filtration onto 0.3% polyethyleneimine soaked filter mats using Filtermate harvester. Scintilation cocktail is then melted onto microwave-dried filters on a hot plate and the radio activity is counted in Microbia counter.
# [10] = biological target: T3, D(4) dopamine receptor (Homo sapiens) (UniProt P21917)
# T3 sequence (whole entry): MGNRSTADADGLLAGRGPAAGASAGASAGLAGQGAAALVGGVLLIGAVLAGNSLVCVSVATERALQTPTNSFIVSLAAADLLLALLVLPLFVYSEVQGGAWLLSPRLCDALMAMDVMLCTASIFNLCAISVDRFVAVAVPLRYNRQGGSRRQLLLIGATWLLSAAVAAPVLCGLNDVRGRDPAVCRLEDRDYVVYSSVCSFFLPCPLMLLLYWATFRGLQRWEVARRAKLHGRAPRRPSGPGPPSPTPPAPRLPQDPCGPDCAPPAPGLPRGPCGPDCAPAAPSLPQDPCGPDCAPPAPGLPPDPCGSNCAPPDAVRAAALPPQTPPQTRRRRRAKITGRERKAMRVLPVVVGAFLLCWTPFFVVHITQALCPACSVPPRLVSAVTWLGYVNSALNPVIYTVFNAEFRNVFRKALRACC
# Description: PDSP Primary Binding target: DRD4 - Compounds are tested at 10 uM concentration, plate are incubated at room temperature in the dark for 90 minutes. Reaction are stopped by vacuum filtration onto 0.3% polyethyleneimine soaked filter mats using Filtermate harvester. Scintilation cocktail is then melted onto microwave-dried filters on a hot plate and the radio activity is counted in Microbia counter.
# [11] = biological target: Muscarinic acetylcholine receptor M3 (Homo sapiens) (UniProt P20309)
# Description: PDSP Primary Binding target: CHRM3 - Compounds are tested at 10 uM concentration, plate are incubated at room temperature in the dark for 90 minutes. Reaction are stopped by vacuum filtration onto 0.3% polyethyleneimine soaked filter mats using Filtermate harvester. Scintilation cocktail is then melted onto microwave-dried filters on a hot plate and the radio activity is counted in Microbia counter.
# [12] = biological target: T4, Alpha-1A adrenergic receptor (Homo sapiens) (UniProt P35348)
# T4 sequence (whole entry): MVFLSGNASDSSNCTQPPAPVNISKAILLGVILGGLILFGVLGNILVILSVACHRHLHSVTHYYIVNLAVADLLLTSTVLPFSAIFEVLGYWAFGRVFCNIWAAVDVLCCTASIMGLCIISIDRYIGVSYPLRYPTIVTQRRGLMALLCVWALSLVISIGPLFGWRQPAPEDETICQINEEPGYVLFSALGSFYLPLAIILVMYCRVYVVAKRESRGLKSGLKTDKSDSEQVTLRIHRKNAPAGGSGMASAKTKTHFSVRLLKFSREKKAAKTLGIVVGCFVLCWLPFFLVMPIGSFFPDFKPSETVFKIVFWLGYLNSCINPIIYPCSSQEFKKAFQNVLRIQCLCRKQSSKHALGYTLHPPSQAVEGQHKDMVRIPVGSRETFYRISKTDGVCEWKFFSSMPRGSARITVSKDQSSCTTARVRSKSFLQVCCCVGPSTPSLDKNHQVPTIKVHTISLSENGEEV
# Description: PDSP Primary Binding target: ADRA1A - Compounds are tested at 10 uM concentration, plate are incubated at room temperature in the dark for 90 minutes. Reaction are stopped by vacuum filtration onto 0.3% polyethyleneimine soaked filter mats using Filtermate harvester. Scintilation cocktail is then melted onto microwave-dried filters on a hot plate and the radio activity is counted in Microbia counter.
# [13] = biological target: T5, Alpha-2A adrenergic receptor (Homo sapiens) (UniProt P08913)
# T5 sequence (whole entry): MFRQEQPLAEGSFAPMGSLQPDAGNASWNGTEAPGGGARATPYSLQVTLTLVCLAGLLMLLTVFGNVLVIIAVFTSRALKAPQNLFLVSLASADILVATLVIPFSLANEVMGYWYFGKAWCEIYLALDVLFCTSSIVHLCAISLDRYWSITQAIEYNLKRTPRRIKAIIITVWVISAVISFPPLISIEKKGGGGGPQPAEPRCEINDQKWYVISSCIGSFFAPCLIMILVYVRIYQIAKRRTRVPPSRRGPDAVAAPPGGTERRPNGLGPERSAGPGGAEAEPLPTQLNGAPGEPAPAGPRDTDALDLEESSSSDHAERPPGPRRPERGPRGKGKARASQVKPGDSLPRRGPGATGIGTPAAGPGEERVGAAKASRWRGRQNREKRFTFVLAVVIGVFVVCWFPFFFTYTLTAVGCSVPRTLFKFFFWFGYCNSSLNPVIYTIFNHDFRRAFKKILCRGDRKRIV
# Description: PDSP Primary Binding target: ADRA2A - Compounds are tested at 10 uM concentration, plate are incubated at room temperature in the dark for 90 minutes. Reaction are stopped by vacuum filtration onto 0.3% polyethyleneimine soaked filter mats using Filtermate harvester. Scintilation cocktail is then melted onto microwave-dried filters on a hot plate and the radio activity is counted in Microbia counter.
# Chain of Translocator protein (Homo sapiens) (P30536 whole entry): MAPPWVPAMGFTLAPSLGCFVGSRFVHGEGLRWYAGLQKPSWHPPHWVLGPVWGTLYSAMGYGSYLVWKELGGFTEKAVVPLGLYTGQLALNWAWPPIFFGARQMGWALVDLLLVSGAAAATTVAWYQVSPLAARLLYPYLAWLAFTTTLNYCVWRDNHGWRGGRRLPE
# Chain of 5-hydroxytryptamine receptor 1B (Homo sapiens) (P28222 whole entry): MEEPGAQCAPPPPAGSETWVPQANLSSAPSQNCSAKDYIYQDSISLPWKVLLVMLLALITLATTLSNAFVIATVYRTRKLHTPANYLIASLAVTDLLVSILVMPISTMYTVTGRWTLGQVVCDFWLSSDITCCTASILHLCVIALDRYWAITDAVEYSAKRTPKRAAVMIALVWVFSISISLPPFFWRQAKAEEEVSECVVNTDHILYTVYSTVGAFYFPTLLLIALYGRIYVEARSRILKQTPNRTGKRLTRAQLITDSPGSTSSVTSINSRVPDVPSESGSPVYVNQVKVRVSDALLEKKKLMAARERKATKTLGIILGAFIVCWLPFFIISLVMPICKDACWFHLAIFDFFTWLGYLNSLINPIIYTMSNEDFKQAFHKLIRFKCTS
# Chain of Muscarinic acetylcholine receptor M3 (Homo sapiens) (P20309 whole entry, looked up): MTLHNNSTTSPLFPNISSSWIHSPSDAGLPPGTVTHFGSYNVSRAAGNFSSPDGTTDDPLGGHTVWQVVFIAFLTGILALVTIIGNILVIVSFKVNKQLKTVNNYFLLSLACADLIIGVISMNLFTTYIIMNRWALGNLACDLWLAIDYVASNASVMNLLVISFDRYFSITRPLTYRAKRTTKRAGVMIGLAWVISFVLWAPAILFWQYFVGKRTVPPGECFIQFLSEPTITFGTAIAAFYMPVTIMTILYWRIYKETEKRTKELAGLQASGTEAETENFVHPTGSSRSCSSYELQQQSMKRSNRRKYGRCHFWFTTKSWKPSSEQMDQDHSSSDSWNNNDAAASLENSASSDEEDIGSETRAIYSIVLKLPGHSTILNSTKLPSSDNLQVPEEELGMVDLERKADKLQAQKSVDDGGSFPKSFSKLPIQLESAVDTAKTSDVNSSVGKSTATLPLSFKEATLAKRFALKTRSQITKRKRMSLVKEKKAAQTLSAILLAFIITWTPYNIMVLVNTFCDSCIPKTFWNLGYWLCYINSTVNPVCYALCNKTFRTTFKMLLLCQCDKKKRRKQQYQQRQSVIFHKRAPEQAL
# Chain of Histamine H3 receptor (Homo sapiens) (Q9Y5N1 whole entry): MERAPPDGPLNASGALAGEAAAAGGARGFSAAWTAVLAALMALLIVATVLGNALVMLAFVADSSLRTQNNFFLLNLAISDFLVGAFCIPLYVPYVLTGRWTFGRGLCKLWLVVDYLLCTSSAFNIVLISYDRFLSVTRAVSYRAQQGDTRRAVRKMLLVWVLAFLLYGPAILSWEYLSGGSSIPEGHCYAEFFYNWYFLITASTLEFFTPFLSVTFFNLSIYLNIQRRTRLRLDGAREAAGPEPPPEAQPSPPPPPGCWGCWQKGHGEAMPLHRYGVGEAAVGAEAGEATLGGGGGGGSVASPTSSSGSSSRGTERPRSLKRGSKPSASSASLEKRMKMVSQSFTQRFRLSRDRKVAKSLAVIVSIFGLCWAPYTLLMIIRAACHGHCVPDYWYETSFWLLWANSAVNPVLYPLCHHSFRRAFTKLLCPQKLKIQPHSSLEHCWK
# Chain of Sodium-dependent serotonin transporter (Homo sapiens) (P31645 whole entry, looked up): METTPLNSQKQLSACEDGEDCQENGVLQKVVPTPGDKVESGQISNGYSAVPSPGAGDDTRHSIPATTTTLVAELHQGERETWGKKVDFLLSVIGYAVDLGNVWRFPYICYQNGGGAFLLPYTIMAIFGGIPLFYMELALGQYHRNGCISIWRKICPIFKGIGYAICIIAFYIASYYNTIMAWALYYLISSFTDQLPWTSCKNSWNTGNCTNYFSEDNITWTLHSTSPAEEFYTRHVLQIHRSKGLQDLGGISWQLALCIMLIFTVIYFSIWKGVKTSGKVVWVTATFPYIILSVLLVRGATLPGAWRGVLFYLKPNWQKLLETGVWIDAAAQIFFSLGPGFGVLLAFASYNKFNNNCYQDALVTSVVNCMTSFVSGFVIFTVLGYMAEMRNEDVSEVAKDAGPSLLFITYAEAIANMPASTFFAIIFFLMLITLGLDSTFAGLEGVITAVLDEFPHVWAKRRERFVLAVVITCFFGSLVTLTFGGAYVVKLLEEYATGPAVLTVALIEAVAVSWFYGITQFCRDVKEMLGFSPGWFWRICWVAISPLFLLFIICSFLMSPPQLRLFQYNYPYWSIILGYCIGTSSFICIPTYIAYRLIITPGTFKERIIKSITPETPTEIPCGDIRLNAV
# Chain of 5-hydroxytryptamine receptor 1E (Homo sapiens) (P28566 whole entry): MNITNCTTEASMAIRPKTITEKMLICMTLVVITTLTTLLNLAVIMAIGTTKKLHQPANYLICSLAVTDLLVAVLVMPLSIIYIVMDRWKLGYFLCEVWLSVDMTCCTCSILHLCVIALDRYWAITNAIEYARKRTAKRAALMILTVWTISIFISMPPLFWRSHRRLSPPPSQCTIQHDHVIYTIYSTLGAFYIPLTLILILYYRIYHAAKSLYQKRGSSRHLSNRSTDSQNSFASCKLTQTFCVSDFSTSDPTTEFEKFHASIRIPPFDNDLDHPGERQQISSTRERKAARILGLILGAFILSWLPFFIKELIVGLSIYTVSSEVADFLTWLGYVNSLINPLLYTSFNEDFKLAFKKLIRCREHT
# Chain of Histamine H1 receptor (Homo sapiens) (P35367 whole entry): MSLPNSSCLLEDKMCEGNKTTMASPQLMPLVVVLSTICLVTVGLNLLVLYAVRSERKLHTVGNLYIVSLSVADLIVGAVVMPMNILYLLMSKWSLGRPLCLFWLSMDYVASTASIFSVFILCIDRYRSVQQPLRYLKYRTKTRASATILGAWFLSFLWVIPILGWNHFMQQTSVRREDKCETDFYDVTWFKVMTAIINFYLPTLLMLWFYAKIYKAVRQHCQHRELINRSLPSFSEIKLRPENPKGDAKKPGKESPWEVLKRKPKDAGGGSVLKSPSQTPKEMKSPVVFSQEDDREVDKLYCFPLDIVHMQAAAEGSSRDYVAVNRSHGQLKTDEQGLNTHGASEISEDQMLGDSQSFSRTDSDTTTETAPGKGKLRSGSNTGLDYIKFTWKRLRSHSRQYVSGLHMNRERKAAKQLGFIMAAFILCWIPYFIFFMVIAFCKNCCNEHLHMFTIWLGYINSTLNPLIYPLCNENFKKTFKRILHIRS
# Chain of D(2) dopamine receptor (Homo sapiens) (P14416 whole entry): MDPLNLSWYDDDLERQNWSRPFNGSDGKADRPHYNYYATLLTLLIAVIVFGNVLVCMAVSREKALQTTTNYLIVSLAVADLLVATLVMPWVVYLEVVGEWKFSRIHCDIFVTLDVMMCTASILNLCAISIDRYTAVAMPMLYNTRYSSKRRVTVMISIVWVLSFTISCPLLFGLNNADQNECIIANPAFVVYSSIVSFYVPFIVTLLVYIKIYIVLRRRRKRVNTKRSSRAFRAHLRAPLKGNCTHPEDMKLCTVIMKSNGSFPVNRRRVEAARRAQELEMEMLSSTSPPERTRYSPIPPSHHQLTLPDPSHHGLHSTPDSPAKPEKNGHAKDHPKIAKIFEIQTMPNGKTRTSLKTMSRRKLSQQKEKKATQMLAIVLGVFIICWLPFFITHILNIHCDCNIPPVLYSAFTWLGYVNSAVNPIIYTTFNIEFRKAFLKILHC
SMILES,inhibition [1],inhibition [2],inhibition [3],inhibition [4],inhibition [5],inhibition [6],inhibition [7],inhibition [8],inhibition [9],inhibition [10],inhibition [11],inhibition [12],inhibition [13]
COc1cccc([C@H](O)C2CCN(CCc3ccc(F)cc3)CC2)c1OC,-8.31%,27.7%,-0.41%,27.2%,-6.18%,4.57%,3.17%,92.9%,34.5%,43.9%,-8.67%,31.6%,33.1%
O=C(c1cc2c(cc1F)OC(c1ccc(F)cc1)(c1ccc(Cl)cc1Cl)O2)N1CCOCC1 (centres undefined),-6.56%,27.6%,19.9%,15.9%,49.3%,5.49%,21%,15.4%,3.46%,29.6%,-9.02%,14.6%,18.1%
NC[C@@H]1O[C@H](C23CC4CC(CC(C4)C2)C3)Cc2c1ccc(O)c2O,29.6%,22.6%,22.3%,28.7%,-5.61%,21.6%,24.8%,38.4%,3.98%,83.8%,12.7%,-1.53%,85.1%
COc1cccc([C@@H](C)NCCCc2ccccc2Cl)c1,9.55%,22.4%,4.34%,26.1%,9.42%,43.9%,26.7%,70.6%,20.3%,32.2%,0.89%,24%,45.1%
CCCCN1CCC(COC(=O)c2cc(Cl)c(N)c3c2OCCO3)CC1,-7.37%,35.3%,22.6%,14.6%,0.42%,43.7%,32.8%,55.4%,24.6%,24.9%,14.6%,52.9%,66.1%
O=S1(=O)c2cccc3cccc(c23)N1CCCN1CCN(c2ccc(F)cc2)CC1,15.9%,31.4%,-4.51%,81.7%,28.7%,41.2%,45.5%,96.9%,92%,108%,1.23%,97.8%,96.8%
CCOC(=O)c1c(C)[nH]c2ccc3c(c12)CN1CCc2cc(OC)ccc2C1O3 (centres undefined),2.39%,54%,-6.16%,6.67%,28.3%,4.19%,-2.82%,24.9%,36.5%,-5.53%,69.2%,41.3%,86.7%
COC(=O)C1=C(C)NC(C)=C(C(=O)OCCCN2CCC(c3ccccc3)(c3ccccc3)CC2)[C@H]1c1cccc([N+](=O)[O-])c1,89.6%,89.2%,40%,85.7%,79.8%,79.2%,62.2%,98.8%,83.9%,41.5%,61.2%,98.9%,90.1%
CN1CC(=O)N=C1NC(=O)Nc1cccc(Cl)c1,6.05%,31.2%,7.82%,-8.91%,-8.11%,-2.54%,-4.69%,-1.11%,-0.49%,27.2%,1.42%,7.79%,3.42%
Cc1nc2sccn2c(=O)c1CCN1CCC(=C(c2ccc(F)cc2)c2ccc(F)cc2)CC1,-0.02%,96%,80.8%,80.8%,31.2%,95.4%,30.7%,98.3%,97.8%,82.1%,6.1%,96.8%,98.8%
Cc1nc(-c2ccc(-c3ccc(C(=O)N4CCc5cc6c(cc54)C4(CCN(C)CC4)CO6)cc3)c(C)c2)no1,93.6%,95.1%,0.78%,41%,24.4%,29%,35.6%,33.8%,66.3%,16.6%,73%,27.9%,73%
S=C(NCCCc1c[nH]cn1)NCCCN(Cc1ccc(Cl)c(Cl)c1)c1ccc(Br)cn1,87.6%,93.3%,7.46%,95%,30.9%,17.1%,100%,83%,65.9%,40.9%,48.4%,84.5%,97.5%
COc1ccc(NS(=O)(=O)c2sc3ccc(Cl)cc3c2C)cc1N1CCNCC1,16.8%,48.8%,13.8%,37.7%,39.5%,37.4%,16.6%,15.6%,33%,0.64%,3.19%,39.7%,75.7%
